Laboratory results published in patent publication US9828381B2, “Substituted pyrazolopyrimidines and method of use” (AbbVie Deutschland GmbH & Co. KG, priority 2015, dated 2017).
pEC50: −log10 of the molar value.

Biological target: GABA-B receptor (Rattus norvegicus (Rat), UniProt O88871+Q9Z0U4)
Assay: [35S]GTPgS binding assay, rat cortical membranes, in presence of EC25 GABA
Assay type: biochemical
Conditions: rat brain cortex membranes; in presence of 1 μM GABA (EC25); positive allosteric modulation
Procedure, shortened: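 Rat cortical membranes (10 µg) in Tris-HCl pH 7.7 with Mg2+, Ca2+, NaCl, EGTA and 20 µM GDP, plus 0.3 nM [35S]GTPγS and 1 µM GABA (EC25), were incubated with compound (10 nM–10 µM) 60 min at room temperature. Filter-bound counts were normalised basal 0%, 1 mM GABA 100%; EC50 from sigmoidal fit.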

Chain of GABA-B receptor (Q9Z0U4 17-960): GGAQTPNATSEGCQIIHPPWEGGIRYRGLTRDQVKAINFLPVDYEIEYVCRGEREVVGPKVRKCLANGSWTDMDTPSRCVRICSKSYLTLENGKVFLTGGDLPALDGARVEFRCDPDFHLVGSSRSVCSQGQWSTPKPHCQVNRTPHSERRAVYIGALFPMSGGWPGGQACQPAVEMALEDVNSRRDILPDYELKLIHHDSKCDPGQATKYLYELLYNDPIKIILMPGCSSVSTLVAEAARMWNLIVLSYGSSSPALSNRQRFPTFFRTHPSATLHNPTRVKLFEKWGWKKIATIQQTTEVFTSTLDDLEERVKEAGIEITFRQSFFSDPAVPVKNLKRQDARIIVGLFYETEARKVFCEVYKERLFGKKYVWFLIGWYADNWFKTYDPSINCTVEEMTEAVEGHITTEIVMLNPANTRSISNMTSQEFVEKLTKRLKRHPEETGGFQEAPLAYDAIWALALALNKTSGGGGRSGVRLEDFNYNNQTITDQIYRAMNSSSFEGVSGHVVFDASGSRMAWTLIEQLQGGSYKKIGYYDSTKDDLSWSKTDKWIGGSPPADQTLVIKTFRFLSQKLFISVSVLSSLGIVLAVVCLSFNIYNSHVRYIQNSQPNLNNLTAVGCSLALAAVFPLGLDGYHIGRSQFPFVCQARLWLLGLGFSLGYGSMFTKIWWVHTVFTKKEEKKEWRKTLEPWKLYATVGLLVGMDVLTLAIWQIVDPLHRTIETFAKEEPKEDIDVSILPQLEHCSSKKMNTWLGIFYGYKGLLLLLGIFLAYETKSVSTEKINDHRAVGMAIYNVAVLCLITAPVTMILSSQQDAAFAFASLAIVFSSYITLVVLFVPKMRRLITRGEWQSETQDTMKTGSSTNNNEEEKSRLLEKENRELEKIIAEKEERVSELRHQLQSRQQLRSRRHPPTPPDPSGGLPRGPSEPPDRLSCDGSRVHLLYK
Chain of GABA-B receptor (O88871 41-940): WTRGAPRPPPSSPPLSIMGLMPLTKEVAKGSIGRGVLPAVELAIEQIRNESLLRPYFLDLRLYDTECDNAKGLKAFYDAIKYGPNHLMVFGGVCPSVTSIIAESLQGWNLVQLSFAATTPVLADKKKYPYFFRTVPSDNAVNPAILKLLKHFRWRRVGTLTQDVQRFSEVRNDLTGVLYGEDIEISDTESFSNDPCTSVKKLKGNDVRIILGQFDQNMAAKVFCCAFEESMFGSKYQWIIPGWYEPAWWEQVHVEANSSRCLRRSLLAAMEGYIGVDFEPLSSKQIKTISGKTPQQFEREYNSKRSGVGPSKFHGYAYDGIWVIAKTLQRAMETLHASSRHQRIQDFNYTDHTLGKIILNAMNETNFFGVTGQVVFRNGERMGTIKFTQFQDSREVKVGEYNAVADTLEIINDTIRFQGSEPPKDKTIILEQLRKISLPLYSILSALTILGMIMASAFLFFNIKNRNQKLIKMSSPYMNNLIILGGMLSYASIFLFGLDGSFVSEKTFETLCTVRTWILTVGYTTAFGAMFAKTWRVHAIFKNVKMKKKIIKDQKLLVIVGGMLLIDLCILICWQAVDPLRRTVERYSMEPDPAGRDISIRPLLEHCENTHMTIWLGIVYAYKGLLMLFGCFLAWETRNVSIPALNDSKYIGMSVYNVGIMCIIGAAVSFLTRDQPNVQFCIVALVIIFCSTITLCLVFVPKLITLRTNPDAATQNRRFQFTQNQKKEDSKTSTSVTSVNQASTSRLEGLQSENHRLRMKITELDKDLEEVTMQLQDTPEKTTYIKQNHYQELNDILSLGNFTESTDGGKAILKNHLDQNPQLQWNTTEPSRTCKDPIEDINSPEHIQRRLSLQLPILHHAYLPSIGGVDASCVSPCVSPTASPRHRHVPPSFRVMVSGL

| Structure (SMILES) | pEC50 |
| --- | --- |
| CC[C@@H]1CN(c2cc(C)nc3cc(C(C)c4ccc(Cl)cc4)nn23)[C@H]1C(=O)O (stereo partly drawn) [Example 2-15, (2R,3R)-1-{2-[1-(4-chlorophenyl)ethyl]-5-methylpyrazolo[1,5-a]pyrimidin-7-yl}-3-ethylazetidine-2-carboxylic acid] | 5.41 |
| Cc1cc(NC(C)(C)C)n2nc(C(C)c3ccc(Cl)cc3)cc2n1 (stereo not shown) [Example 2-8, N-tert-butyl-2-[1-(4-chlorophenyl)ethyl]-5-methylpyrazolo[1,5-a]pyrimidin-7-amine] | 7.15 |
| Cc1cc(N2CCC[C@H](O)C2)n2nc(Cc3ccc(Cl)cc3)cc2n1 [Example 1-6, (3S)-1-[2-(4-chlorobenzyl)-5-methylpyrazolo[1,5-a]pyrimidin-7-yl]piperidin-3-ol] | 6.01 |
| Cc1cc(N2CCCC(F)(F)C2)n2nc(Cc3ccc(Cl)cc3)cc2n1 [Example 1-4, 2-(4-chlorobenzyl)-7-(3,3-difluoropiperidin-1-yl)-5-methylpyrazolo[1,5-a]pyrimidine] | 5.54 |
| Cc1cc(N2CCCC(C(N)=O)C2)n2nc(Cc3ccc(Cl)cc3)cc2n1 (stereo not shown) [Example 1-19, 1-[2-(4-chlorobenzyl)-5-methylpyrazolo[1,5-a]pyrimidin-7-yl]piperidine-3-carboxamide] | 5.00 |

More lines, now with the values ahead:

| pEC50 | Structure (SMILES) |
| --- | --- |
| 6.13 | Cc1cc(N2CCCCC2=O)n2nc(C(C)c3ccc(C(F)(F)F)cc3)cc2n1 (stereo not shown) [Example 8-18, 1-(5-methyl-2-{1-[4-(trifluoromethyl)phenyl]ethyl}pyrazolo[1,5-a]pyrimidin-7-yl)piperidin-2-one] |
| 6.42 | Cc1cc(N2CCC(F)CC2)n2nc(C(C)c3ccc(C(F)(F)F)cc3)cc2n1 (stereo not shown) [Example 8-11, 7-(4-fluoropiperidin-1-yl)-5-methyl-2-{1-[4-(trifluoromethyl)phenyl]ethyl}pyrazolo[1,5-a]pyrimidine] |
| 6.25 | Cc1cc(N2CCC3(CC2)COC3)n2nc(C(C)c3ccc(C(F)(F)F)cc3)cc2n1 (stereo not shown) [Example 8-21, 5-methyl-7-(2-oxa-7-azaspiro[3.5]non-7-yl)-2-{1-[4-(trifluoromethyl)phenyl]ethyl}pyrazolo[1,5-a]pyrimidine] |
| 5.81 | Cc1cc(N2CCCC(CO)C2)n2nc(C(C)c3ccc(Cl)cn3)cc2n1 (stereo not shown) [Example 9-1, (1-{2-[1-(5-chloropyridin-2-yl)ethyl]-5-methylpyrazolo[1,5-a]pyrimidin-7-yl}piperidin-3-yl)methanol] |
| 6.29 | Cc1cc(NC2CC(F)C2)n2nc(C(C)c3ccc(C(F)(F)F)cc3)cc2n1 (stereo not shown) [Example 8-6, N-(3-fluorocyclobutyl)-5-methyl-2-{1-[4-(trifluoromethyl)phenyl]ethyl}pyrazolo[1,5-a]pyrimidin-7-amine] |
